# In patent US20110195911A1, “SYNTHETIC ANALOGS OF THE JUXTAMEMBRANE DOMAIN OF IGF1R AND USES THEREOF” (THE UNITED STATES OF AMERICA,AS REPRESENTED BY THE …, priority 2008, published 2011):
# Where a SMILES comes first, the peptide text is derived from it. The star is where a group is joined. Palmitoyl = CCCCCCCCCCCCCCCC(=O)*
# Tested on: MCF-7 breast cancer cells
# Test: MTT cell toxicity assay in MCF-7 breast cancer cells
# Assay type: cell-based
# Conditions: MCF-7 cells, MTT; for GI50 / TGI: final 0.5% FBS, two days with compound; for TGI: concentration of total growth inhibition (cytostatic); for growth inhibition / potency in MCF-7 cells (in words): comparison with related peptides
# Method: Cell Toxicity Assays: MCF-7 (breast cancer), T47D (breast cancer), Colo 205 (colon cancer), JM-1 (rat hepatoma), Sk Me1-2 (melanoma), PLC (human hepatoma), and HepG2 (human hepatoma) cells were obtained from American Type Cell Culture Collection. MCF-7 cells were grown in RPMI medium supplemented with 10% Fetal Bovine Serum. The rest of the cell lines were grown in DMEM medium supplemented with 10% Fetal Bovine Serum.
# MTT 43-(4,5-Dimethylthiazol-2-yl)-2,5-diphenyltetrazolium) cell assay was performed using MCF-7 breast cancer cells. For the assay, cells were seeded into 96 well plates in medium containing 1% Fetal Bovine Serum and 100 μL of a cell suspension containing 5000 cells per well. Wells containing medium-only, and wells containing untreated cells, served as controls.
# Seeded cells were allowed to attach and grow in the wells for 24 hours. A 5 mM stock solution of each peptide was made by dissolving approximately 1 mg of peptide in appropriate amount of DMSO. 2 mL dilutions were used to make 0.2 μM, 1.0 μM, 5.0 μM, and 10.0 μM concentration solutions of the compounds in serum-free medium. 100 μl, of the resulting 2× solutions were added to the corresponding wells to provide a final FBS concentration of 0.5% and 0.1 μM, 0.5 μM, 2.5 μM, and 5.0 μM dilutions of inhibitors. The cells were incubated with test compounds for two days. The control wells were given 100 μL of medium to ensure maximum similarity to the test wells so that all of the wells had 200 μL of medium during the growth period. An individual plate was made for Time Zero, to which the dye was added at the time of addition of compounds.
# An alternative potency assay was used to test compounds in MCF-7 (breast cancer), T47D (breast cancer), Colo 205 (colon cancer), JM-1 (rat hepatoma), Sk MeI-2 (melanoma), PLC (human hepatoma), and HepG2 (human hepatoma) cells. Cells were suspended at a concentration of approximately 5000 cells per 100 μL of suspension in a 5% FBS RPMI medium. The cells were seeded into 96-count wells and incubated over night. After one day's incubation, the 5% FBS medium was aspirated and replaced with 100 μL of no serum RPMI medium containing 1 mg Bovine Serum Albumin (BSA) per 1 mL RPMI. Various concentrations of the test compounds were prepared by dilution in no-serum medium containing 1 mg BSA/mL. 75 μL of the test compound solutions were added to the wells, and the cells were allowed to incubate for 15-20 minutes, after which time 25 μL of human recombinant IGF-1 (Peprotech) solution was added to the wells to attain final concentrations of 10 ng IGF-1/mL medium. The control wells were given 175 μL of no-serum medium in addition to 25 μL of IGF-1 solution. An individual plate was made for time zero, in which the medium was also aspirated and replaced with 175 μL of no-serum medium and 25 μL of IGF-1. 15 μL of MTT dye was added and let incubate for 4 hours, after which time a stop stop solubilization solution was added. The stop solution lysed the cells and released the dye reduced by the remaining living cells. Absorbance of the wells at 544 nm was determined by a FLUOstar/POLARstar Galaxy (BMG Lab Technologies GmbH) microplate reader. The activity was calculated from the data using the formula: 100×[(T−T0)/(C−T0)] for T>T0 and 100×[(T−T0)/T0] for T<T0, wherein T0 corresponds to cell density at the time of drug addition, “T” is the optical density of the test well after a 48-h period of exposure to test drug, and “C” is the control optical density. The GI50 measures the growth inhibitory power of the test agent, and is defined as the concentration of test drug where 100×(T−T0)/(C−T0)=50. The TGI is the concentration of test drug where 100×(T−T0)/(C−T0)=0. Thus, the TGI signifies a cytostatic effect.
Structure (SMILES),GI50,TGI,growth inhibition / potency in MCF-7 cells (in words),cell killing activity (in words)
"CCCCCCCCCCCCCCCC(=O)N[C@@H](CCCNC(=N)N)C(=O)N[C@@H](CCC(N)=O)C(=O)N1CCC[C@H]1C(=O)N[C@@H](CC(=O)O)C(=O)NCC(=O)N1CCC[C@H]1C(=O)N[C@@H](CC(C)C)C(=O)NCC(=O)N1CCC[C@H]1C(=O)N[C@@H](CC(C)C)C(=O)N[C@@H](Cc1ccc(O)cc1)C(N)=O [IR-2, Pal-RQPDGPLGPLY-NH2] (Palmitoyl-RQPDGPLGPLY-NH2)",60 ± 1 nM,400 ± 50 nM,inhibited growth,–
"CCCCCCCCCCCCCCCC(=O)N[C@@H](Cc1c[nH]cn1)C(=O)N[C@@H](CCCNC(=N)N)C(=O)N[C@@H](CCCCN)C(=O)N[C@@H](CCCNC(=N)N)C(=O)N[C@@H](CC(N)=O)C(=O)N[C@@H](CC(N)=O)C(=O)N[C@@H](CO)C(=O)N[C@@H](CCCNC(=N)N)C(=O)N[C@@H](CC(C)C)C(=O)NCC(=O)N[C@@H](CC(N)=O)C(=O)NCC(N)=O [Peptide 1, Pal-HRKRNNSRLGNG-NH2] (Palmitoyl-HRKRNNSRLGNG-NH2)",1800 ± 50 nM,>5000 nM,–,–
"CCCCCCCCCCCCCCCC(=O)N[C@@H](Cc1c[nH]cn1)C(=O)N[C@@H](CCCNC(=N)N)C(=O)N[C@@H](CCCCN)C(=O)N[C@@H](CCCNC(=N)N)C(=O)N[C@@H](CC(N)=O)C(=O)N[C@@H](CC(N)=O)C(=O)N[C@@H](CO)C(=O)N[C@@H](CCCNC(=N)N)C(=O)N[C@@H](CC(C)C)C(=O)NCC(N)=O [Peptide 2, Pal-HRKRNNSRLG-NH2] (Palmitoyl-HRKRNNSRLG-NH2)",1300 ± 50 nM,>5000 nM,–,–
"CCCCCCCCCCCCCCCC(=O)N[C@@H](Cc1c[nH]cn1)C(=O)N[C@@H](CCCNC(=N)N)C(=O)N[C@@H](CCCCN)C(=O)N[C@@H](CCCNC(=N)N)C(=O)N[C@@H](CC(N)=O)C(=O)N[C@@H](CC(N)=O)C(=O)N[C@@H](CO)C(=O)N[C@@H](CCCNC(=N)N)C(=O)N[C@@H](CC(C)C)C(=O)NCC(=O)N[C@@H](CC(N)=O)C(=O)NCC(=O)N[C@H](C(=O)N[C@@H](CC(C)C)C(=O)N[C@@H](Cc1ccc(O)cc1)C(=O)N[C@@H](C)C(=O)N[C@@H](CO)C(=O)N[C@H](C(=O)N[C@@H](CC(N)=O)C(N)=O)C(C)C)C(C)C [Peptide 3, Pal-HRKRNNSRLGNGVLYASVN-NH2] (Palmitoyl-HRKRNNSRLGNGVLYASVN-NH2)",–,1550 ± 100 nM,–,exhibited cell killing activity
CCCCCCCCCCCCCCCC(=O)N[C@@H](Cc1c[nH]cn1)C(=O)N[C@@H](CCCNC(=N)N)C(=O)N[C@@H](CCCCN)C(=O)N[C@@H](CCCNC(=N)N)C(=O)N[C@@H](CC(N)=O)C(=O)N[C@@H](CC(N)=O)C(=O)N[C@@H](CO)C(=O)N[C@@H](CCCNC(=N)N)C(=O)N[C@@H](CC(C)C)C(=O)NCC(=O)N[C@@H](CC(N)=O)C(=O)NCC(=O)N[C@H](C(=O)N[C@@H](CC(C)C)C(=O)N[C@@H](Cc1ccc(O)cc1)C(=O)N[C@@H](C)C(=O)N[C@@H](CO)C(=O)N[C@H](C(=O)N[C@@H](CC(N)=O)C(=O)N1CCC[C@H]1C(=O)N[C@@H](CCC(=O)O)C(=O)N[C@@H](Cc1ccc(O)cc1)C(=O)N[C@@H](Cc1ccccc1)C(=O)N[C@@H](CO)C(=O)N[C@@H](C)C(=O)N[C@@H](C)C(N)=O)C(C)C)C(C)C [Peptide 4] (Palmitoyl-HRKRNNSRLGNGVLYASVNPEYFSAA-NH2),1000 ± 50 nM,>5000 nM,–,–
"CCCCCCCCCCCCCCCC(=O)N[C@@H](Cc1c[nH]cn1)C(=O)N[C@@H](CCCNC(=N)N)C(=O)N[C@@H](CCCCN)C(=O)N[C@@H](CCCNC(=N)N)C(=O)N[C@@H](CC(N)=O)C(=O)N[C@@H](CC(N)=O)C(=O)N[C@@H](CO)C(=O)N[C@@H](CCCNC(=N)N)C(=O)N[C@@H](CC(C)C)C(=O)NCC(=O)N[C@@H](CC(N)=O)C(=O)NCC(=O)N[C@H](C(=O)N[C@@H](CC(C)C)C(=O)N[C@@H](Cc1ccc(O)cc1)C(=O)N[C@@H](C)C(=O)N[C@@H](CO)C(=O)N[C@H](C(N)=O)C(C)C)C(C)C [Peptide 5, Pal-HRKRNNSRLGNGVLYASV-NH2] (Palmitoyl-HRKRNNSRLGNGVLYASV-NH2)",450 ± 50 nM,1450 ± 300 nM,increased the potency,–
"CCCCCCCCCCCCCCCC(=O)N[C@H](C(=O)N[C@@H](Cc1c[nH]cn1)C(=O)N[C@@H](CCCNC(=N)N)C(=O)N[C@@H](CCCCN)C(=O)N[C@@H](CCCNC(=N)N)C(=O)N[C@@H](CC(N)=O)C(=O)N[C@@H](CC(N)=O)C(=O)N[C@@H](CO)C(=O)N[C@@H](CCCNC(=N)N)C(=O)N[C@@H](CC(C)C)C(=O)NCC(=O)N[C@@H](CC(N)=O)C(=O)NCC(=O)N[C@H](C(=O)N[C@@H](CC(C)C)C(=O)N[C@@H](Cc1ccc(O)cc1)C(=O)N[C@@H](C)C(=O)N[C@@H](CO)C(=O)N[C@H](C(N)=O)C(C)C)C(C)C)C(C)C [Peptide 6, Pal-VHRKRNNSRLGNGVLYASV-NH2] (Palmitoyl-VHRKRNNSRLGNGVLYASV-NH2)",250 ± 30 nM,1050 ± 100 nM,–,–
"CCCCCCCCCCCCCCCC(=O)N[C@@H](Cc1c[nH]cn1)C(=O)N[C@@H](CCCNC(=N)N)C(=O)N[C@@H](CCCCN)C(=O)N[C@@H](CCCNC(=N)N)C(=O)N[C@@H](CC(N)=O)C(=O)N[C@@H](CC(N)=O)C(=O)N[C@@H](CO)C(=O)N[C@@H](CCCNC(=N)N)C(=O)N[C@@H](CC(C)C)C(=O)NCC(=O)N[C@@H](CC(N)=O)C(=O)NCC(=O)N[C@H](C(=O)N[C@@H](CC(C)C)C(=O)N[C@@H](Cc1ccc(O)cc1)C(=O)N[C@@H](C)C(=O)N[C@@H](CO)C(N)=O)C(C)C [Peptide 7, Pal-HRKRNNSRLGNGVLYAS-NH2] (Palmitoyl-HRKRNNSRLGNGVLYAS-NH2)",1450 ± 100 nM,4100 ± 300 nM,–,–
"CCCCCCCCCCCCCCCC(=O)N[C@@H](Cc1c[nH]cn1)C(=O)N[C@@H](CCCNC(=N)N)C(=O)N[C@@H](CCCCN)C(=O)N[C@@H](CCCNC(=N)N)C(=O)N[C@@H](CC(N)=O)C(=O)N[C@@H](CC(N)=O)C(=O)N[C@@H](CO)C(=O)N[C@@H](CCCNC(=N)N)C(=O)N[C@@H](CC(C)C)C(=O)NCC(=O)N[C@@H](CC(N)=O)C(=O)NCC(=O)N[C@H](C(=O)N[C@@H](CC(C)C)C(=O)N[C@@H](Cc1ccc(O)cc1)C(=O)N[C@@H](C)C(N)=O)C(C)C [Peptide 8, Pal-HRKRNNSRLGNGVLYA-NH2] (Palmitoyl-HRKRNNSRLGNGVLYA-NH2)",1400 ± 100 nM,>5000 nM,–,–
"CCCCCCCCCCCCCCCC(=O)N[C@@H](Cc1c[nH]cn1)C(=O)N[C@@H](CCCNC(=N)N)C(=O)N[C@@H](CCCCN)C(=O)N[C@@H](CCCNC(=N)N)C(=O)N[C@@H](CC(N)=O)C(=O)N[C@@H](CC(N)=O)C(=O)N[C@@H](CO)C(=O)N[C@@H](CCCNC(=N)N)C(=O)N[C@@H](CC(C)C)C(=O)NCC(=O)N[C@@H](CC(N)=O)C(=O)NCC(=O)N[C@H](C(=O)N[C@@H](CC(C)C)C(N)=O)C(C)C [Peptide 10, Pal-HRKRNNSRLGNGVL-NH2] (Palmitoyl-HRKRNNSRLGNGVL-NH2)",1800 ± 100 nM,>5000 nM,–,–
"CCCCCCCCCCCCCCCC(=O)N[C@@H](Cc1c[nH]cn1)C(=O)N[C@@H](CCCNC(=N)N)C(=O)N[C@@H](CCCCN)C(=O)N[C@@H](CCCNC(=N)N)C(=O)N[C@@H](CC(N)=O)C(=O)N[C@@H](CC(N)=O)C(=O)N[C@@H](CO)C(=O)N[C@@H](CCCNC(=N)N)C(=O)N[C@@H](CC(C)C)C(=O)NCC(=O)N[C@@H](CC(N)=O)C(=O)NCC(=O)N[C@H](C(N)=O)C(C)C [Peptide 11, Pal-HRKRNNSRLGNGV-NH2] (Palmitoyl-HRKRNNSRLGNGV-NH2)",2500 ± 100 nM,>5000 nM,–,–
